From patent US7468393B2, “Diarylsulfones as 5-HT2A antagonists” (Merck Sharp & Dohme Ltd., priority 2004, dated 2008)

C[C@H](O)c1ccccc1S(=O)(=O)c1ccc(/C=C/c2ccc(F)cc2)cc1 [Example 135, (1S)-1-[2-({4-[(E)-2-(4-fluorophenyl)vinyl]phenyl}sulfonyl)phenyl]ethanol]
melting point: 75 °C
